Among the data in patent US6784137B2, “6-aryl-4-aminopicolinates and their use as herbicides” (Dow AgroSciences LLC, priority 2001, dated 2004) are melting point and pest or weed control values, retold here.

For series [1], the system named is Lambsquarter (Chenopodium album). In words: Preemergence herbicidal activity, soil spray. It is filed as in vivo. The conditions noted are these: Chenopodium album, pre-emergence, 504 h, Table 5, visual score after 3 weeks, read-out: Pre-emergent % control CHEAL; for pest or weed control at 560 ppm: rate 560 ppm, 100 complete kill or no germination. An outline of the steps:
(§1)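 Soil spray, preemergence: loam/sand 70:30 (pH ~8.1, OM ~1.5%) → seeded pots treated on surface; compound in acetone/DMSO 97:3, serially diluted into water/Tween 155 (99.9:0.1). Controls got aqueous carrier only. Greenhouse: ~15 h light, 23-29° C day / 22-28° C night.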

The subject of series [2] is Crabgrass(large) (Digitaria sanguinalis). In words: Preemergence herbicidal activity, soil spray. Type of series: in vivo. Conditions: Digitaria sanguinalis, pre-emergence, 504 h, Table 5, visual score after 3 weeks, read-out: Pre-emergent % control DIGSA; for pest or weed control at 560 ppm: rate 560 ppm. The procedure, abridged: as §1
Series [3] relates to Giant Foxtail (Setaria faberi). In words: Preemergence herbicidal activity, soil spray. It is filed as in vivo. The conditions noted are these: Setaria faberi, pre-emergence, 504 h, Table 5, visual score after 3 weeks, read-out: Pre-emergent % control SETFA; for pest or weed control at 560 ppm: rate 560 ppm. An outline of the steps: as §1
Series [4] deals with Pigweed (redroot) (Amaranthus retroflexus). In words: Preemergence herbicidal activity, soil spray. Type of series: in vivo. The conditions noted are these: Amaranthus retroflexus, pre-emergence, 504 h, Table 5, visual score after 3 weeks, read-out: Pre-emergent % control AMARE; for pest or weed control at 560 ppm: rate 560 ppm. The procedure, abridged: as §1
Series [5] has as its system Lambsquarter (Chenopodium album). Nature of the series: Postemergence herbicidal activity, greenhouse spray. It is filed as in vivo. The conditions noted are these: Chenopodium album, post-emergence, 336 h, visual score after 2 weeks, read-out: Post-emergent % control CHEAL; for pest or weed control at 500 ppm: rate 500 ppm; for pest or weed control at 125 ppm: Table 2, rate 125 ppm. An outline of the steps: (§2)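 Seedlings were raised under greenhouse conditions for 7-21 days and used at the first or second true leaf stage. Each was sprayed evenly with about 1.5 mL of test solution by atomizer at […]. Treated pots then returned to the greenhouse, watered from below to avoid wash-off.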

Series [6] has as its system Cocklebur (Xanthium strumarium). Described as above. Type of series: in vivo. The conditions noted are these: Xanthium strumarium, post-emergence, 336 h, visual score after 2 weeks, read-out: Post-emergent % control XANST; for pest or weed control at 500 ppm: rate 500 ppm, 0 no injury, 100 complete kill; for pest or weed control at 125 ppm: Table 2, rate 125 ppm. An outline of the steps: as §2

Series [7] concerns Yellow nutsedge (Cyperus esculentus). Described as above. Conditions: Cyperus, post-emergence, 336 h, visual score after 2 weeks, read-out: Post-emergent % control CYPES; for pest or weed control at 500 ppm: rate 500 ppm; for pest or weed control at 125 ppm: Table 2, rate 125 ppm. Type of series: in vivo. An outline of the steps: as §2
Series [8] concerns Barnyardgrass (Echinochloa crus-galli). The series is described as above. It is filed as in vivo. Conditions: Echinochloa crus-galli, post-emergence, 336 h, visual score after 2 weeks, read-out: Post-emergent % control ECHCG; for pest or weed control at 500 ppm: rate 500 ppm; for pest or weed control at 125 ppm: Table 2, rate 125 ppm. An outline of the steps: as §2

Consider `Nc1cc(-c2ccc(Cl)cc2)nc(C(=O)O)c1Cl` [Compound 154, 4-Amino-3-chloro-6-(4-chlorophenyl)pyridine-2-carboxylic acid], for which the melting point (as a rule, the temperature, or range, at which the solid turns liquid) came to 165 °C. Also, the pest or weed control at 140 ppm in series [1] (rate 140 ppm) came out at 100%. The pest or weed control at 140 ppm in [2] (rate 140 ppm) came to 100%. Further, the pest or weed control at 140 ppm in series [3] (rate 140 ppm) turned out to be 100%. For the same compound, in series [4] (rate 140 ppm), the pest or weed control at 140 ppm was 100%. In [5] (Table 1), the pest or weed control at 500 ppm worked out at 100%. The pest or weed control at 125 ppm in series [5] stood at 100%. Moreover, in series [6] (Table 1), the pest or weed control at 500 ppm stood at 100%. The pest or weed control at 125 ppm in series [6] was determined as 100%. In addition, the pest or weed control at 500 ppm in series [7] (Table 1) amounted to 100%. Moreover, in [7], the pest or weed control at 125 ppm turned out to be 90%. For the same compound, in [8] (Table 1), the pest or weed control at 500 ppm is 100%. In addition, the pest or weed control at 125 ppm in series [8] worked out at 70%.

As to `COc1ccccc1-c1cc(N)c(Cl)c(C(=O)O)n1` [Compound 139, 4-Amino-3-chloro-6-(2-methoxyphenyl)pyridine-2-carboxylic acid], the melting point is 177 to 179 °C. Also, the pest or weed control at 560 ppm in series [1] stood at 100%. Moreover, the pest or weed control at 560 ppm in series [2] turned out to be 100%. In [3], the pest or weed control at 560 ppm came out at 100%. The pest or weed control at 560 ppm in [4] is 100%. Also, the pest or weed control at 250 ppm in series [5] (Table 1, rate 250 ppm) stood at 95%. Further, the pest or weed control at 250 ppm in series [6] (Table 1, rate 250 ppm) worked out at 100%. Moreover, the pest or weed control at 250 ppm in series [7] (Table 1, rate 250 ppm) worked out at 30%. In addition, the pest or weed control at 250 ppm in series [8] (Table 1, rate 250 ppm) stood at 70%.

The compound `COC(=O)c1nc(-c2ccc(Cl)cc2)c(Cl)c(N)c1Cl` [Compound 86, Methyl 4-amino-3,5-dichloro-6-(4-chlorophenyl)pyridine-2-carboxylate] came in with a melting point of 160 to 162 °C. Moreover, in [1], the pest or weed control at 560 ppm amounted to 100%. Further, the pest or weed control at 560 ppm in series [2] amounted to 40%. The pest or weed control at 560 ppm in [3] amounted to 40%. In addition, the pest or weed control at 560 ppm in series [4] was found to be 100%. In addition, the pest or weed control at 500 ppm in series [5] (Table 1) came out at 100%. Besides, the pest or weed control at 125 ppm in [5] was found to be 100%. Besides, in series [6] (Table 1), the pest or weed control at 500 ppm is 100%. Also, the pest or weed control at 125 ppm in [6] was determined as 100%. Moreover, the pest or weed control at 500 ppm in series [7] (Table 1) was determined as 90%. Besides, the pest or weed control at 125 ppm in series [7] was determined as 100%. Further, the pest or weed control at 500 ppm in series [8] (Table 1) stood at 90%. Besides, the pest or weed control at 125 ppm in series [8] worked out at 80%.
